This is an account of results in patent publication US9655887B2, “Pharmaceutical composition and the use thereof, and application regime of said pharmaceutical composition for on-demand contraception” (BAYER PHARMA AKTIENGESELLSCHAFT, priority 2013, dated 2017).

The structures appear in SMILES notation.

For the test, the target named is EP2 subtype of the human PGE2 receptor (hEP2 receptor) (Homo sapiens, UniProt P43116). The test can be described thus: cAMP antagonism test, human prostaglandin E2 (subtype EP2) receptor signal. Format: cell-based. The procedure, abridged: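 Cells (625000 cells/ml, mixed with cAMP-d2) were preincubated 20 min at RT with compound ([…]). They were then stimulated 60 min at RT with a 3× PGE2 solution (1.5 nM) in PBS-IBMX and lysed for 20 min. cAMP was read by HTRF as the 665/620 nm ratio ×10000, with antagonism seen as a rise in FRET signal.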
EP2 subtype of the human PGE2 receptor (hEP2 receptor), sequence (P43116 whole entry): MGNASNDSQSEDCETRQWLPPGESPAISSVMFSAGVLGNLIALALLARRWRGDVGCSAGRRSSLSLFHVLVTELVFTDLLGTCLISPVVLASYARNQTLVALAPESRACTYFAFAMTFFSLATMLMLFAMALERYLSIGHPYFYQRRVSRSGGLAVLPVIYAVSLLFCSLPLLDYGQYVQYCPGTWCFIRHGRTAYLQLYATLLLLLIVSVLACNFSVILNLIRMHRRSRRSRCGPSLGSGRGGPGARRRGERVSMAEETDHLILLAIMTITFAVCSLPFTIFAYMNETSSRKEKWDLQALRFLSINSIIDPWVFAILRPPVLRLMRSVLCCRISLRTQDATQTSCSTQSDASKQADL
`COCCNC(=O)c1ccc2nn(CC3CCN(C(=O)c4ccc(Oc5cccc(C(F)(F)F)n5)cc4)CC3)cc2c1C` [Example E165, N-(2-methoxyethyl)-4-methyl-2-{[1-(4-{[6-(trifluoromethyl)pyridin-2-yl]oxy}benzoyl)-piperidin-4-yl]methyl}-2H-indazole-5-carboxamide] registered a concentration for half-maximal inhibition (IC50) of over 50 nM.

The compound `COCCNC(=O)c1ccc2nn(CC3CCN(C(=O)c4ccc(-c5ccc(OC)cc5)cc4)CC3)cc2c1C` [Example E166, 2-({1-[(4′-methoxybiphenyl-4-yl)carbonyl]piperidin-4-yl}methyl)-N-(2-methoxyethyl)-4-methyl-2H-indazole-5-carboxamide] registered an IC50 of over 50 nM.

`COCCNC(=O)c1ccc2nn(CC3CCN(C(=O)c4ccc(Oc5cccc(C(F)(F)F)c5)cc4)CC3)cc2c1C` [Example E168, N-(2-methoxyethyl)-4-methyl-2-[(1-{4-[3-(trifluoromethyl)phenoxy]benzoyl}piperidin-4-yl)methyl]-2H-indazole-5-carboxamide] showed an IC50 of over 50 nM.

`COCCNC(=O)c1ccc2nn(CC3CCN(C(=O)c4ccc(Oc5ccc(Cl)cn5)cc4)CC3)cc2c1C` [Example E170, 2-[(1-{4-[(5-chloropyridin-2-yl)oxy]benzoyl}piperidin-4-yl)methyl]-N-(2-methoxy-ethyl)-4-methyl-2H-indazole-5-carboxamide] displayed an IC50 of over 50 nM.

Compound `COCCNC(=O)c1ccc2nn(CC3CCN(C(=O)c4ccc(Oc5ccc(F)cc5F)cc4)CC3)cc2c1C` [Example E171, 2-({1-[4-(2,4-difluorophenoxy)benzoyl]piperidin-4-yl}methyl)-N-(2-methoxyethyl)-4-methyl-2H-indazole-5-carboxamide] returned an IC50 of over 50 nM.

With `COCCNC(=O)c1ccc2nn(CC3CCN(C(=O)c4ccc(Oc5ccc(F)c(F)c5)cc4)CC3)cc2c1C` [Example E172, 2-({1-[4-(3,4-difluorophenoxy)benzoyl]piperidin-4-yl}methyl)-N-(2-methoxyethyl)-4-methyl-2H-indazole-5-carboxamide], the 50% inhibitory concentration (IC50) was over 50 nM.

In the case of `COCCNC(=O)c1ccc2nn(CC3CCN(C(=O)c4ccc(-c5ccc(C(F)(F)F)cc5)cc4)CC3)cc2c1C` [Example E173, N-(2-methoxyethyl)-4-methyl-2-[(1-{[4′-(trifluoromethyl)biphenyl-4-yl]carbonyl}-piperidin-4-yl)methyl]-2H-indazole-5-carboxamide], the IC50 is over 50 nM.

In turn, `COCCNC(=O)c1ccc2nn(CC3CCN(C(=O)c4ccc(Oc5cccc(F)c5)cc4)CC3)cc2c1C` [Example E174, 2-({1-[4-(3-fluorophenoxy)benzoyl]piperidin-4-yl}methyl)-N-(2-methoxyethyl)-4-methyl-2H-indazole-5-carboxamide] had an IC50 of over 50 nM.

The compound `COCCNC(=O)c1ccc2nn(CC3CCN(C(=O)c4ccc(OC(C)C)cc4F)CC3)cc2c1C` [Example E175, 2-{[1-(2-fluoro-4-isopropoxybenzoyl)piperidin-4-yl]methyl}-N-(2-methoxyethyl)-4-methyl-2H-indazole-5-carboxamide] displayed an IC50 of over 50 nM.

For `COCCNC(=O)c1ccc2nn(CC3CCN(C(=O)c4ccc(-c5ccc(C)c(C)c5)cc4F)CC3)cc2c1C` [Example E176, 2-({1-[(3-fluoro-3′,4′-dimethylbiphenyl-4-yl)carbonyl]piperidin-4-yl}methyl)-N-(2-methoxyethyl)-4-methyl-2H-indazole-5-carboxamide], the IC50 was over 50 nM.

`COCCNC(=O)c1ccc2nn(CC3CCN(C(=O)c4ccc(-c5ccc(OC)cc5F)cc4F)CC3)cc2c1C` [Example E177, 2-({1-[(2′,3-difluoro-4′-methoxybiphenyl-4-yl)carbonyl]piperidin-4-yl}methyl)-N-(2-methoxyethyl)-4-methyl-2H-indazole-5-carboxamide] yielded an IC50 of over 50 nM.

The compound `COCCNC(=O)c1ccc2nn(CC3CCN(C(=O)c4ccc(OC(F)F)cc4)CC3)cc2c1C` [Example E178, 2-({1-[4-(difluoromethoxy)benzoyl]piperidin-4-yl}methyl)-N-(2-methoxyethyl)-4-methyl-2H-indazole-5-carboxamide] displayed an IC50 of over 50 nM.

In the case of `COCCNC(=O)c1ccc2nn(CC3CCN(C(=O)c4ccc(Oc5ccccc5F)cc4)CC3)cc2c1C` [Example E179, 2-({1-[4-(2-fluorophenoxy)benzoyl]piperidin-4-yl}methyl)-N-(2-methoxyethyl)-4-methyl-2H-indazole-5-carboxamide], the IC50 is over 50 nM.

Regarding `COCCNC(=O)c1ccc2nn(CC3CCN(C(=O)c4ccc(-c5ccc(C#N)cc5C)cc4)CC3)cc2c1C` [Example E180, 2-({1-[(4′-cyano-2′-methylbiphenyl-4-yl)carbonyl]piperidin-4-yl}methyl)-N-(2-methoxyethyl)-4-methyl-2H-indazole-5-carboxamide], the IC50 was over 50 nM.

As for `COCCNC(=O)c1ccc2nn(CC3CCN(C(=O)c4ccc(-c5ccc(Cl)cn5)cc4)CC3)cc2c1C` [Example E181, 2-({1-[4-(5-chloropyridin-2-yl)benzoyl]piperidin-4-yl}methyl)-N-(2-methoxyethyl)-4-methyl-2H-indazole-5-carboxamide], the IC50 was over 50 nM.

In turn, `COCCNC(=O)c1ccc2nn(CC3CCN(C(=O)c4ccc(-c5cccc(C(F)(F)F)n5)cc4)CC3)cc2c1C` [Example E182, N-(2-methoxyethyl)-4-methyl-2-[(1-{4-[6-(trifluoromethyl)pyridin-2-yl]benzoyl}-piperidin-4-yl)methyl]-2H-indazole-5-carboxamide] gave an IC50 of over 50 nM.

`COCCNC(=O)c1ccc2nn(CC3CCN(C(=O)c4ccc(-c5ccc(OC)cc5C)cc4)CC3)cc2c1C` [Example E183, N-(2-methoxyethyl)-2-({1-[(4′-methoxy-2′-methylbiphenyl-4-yl)carbonyl]piperidin-4-yl}methyl)-4-methyl-2H-indazole-5-carboxamide]: the IC50 is over 50 nM.

In turn, `COCCNC(=O)c1ccc2nn(CC3CCN(C(=O)c4ccc(-c5ccc(Cl)cc5C)cc4)CC3)cc2c1C` [Example E184, 2-({1-[(4′-chloro-2′-methylbiphenyl-4-yl)carbonyl]piperidin-4-yl}methyl)-N-(2-methoxyethyl)-4-methyl-2H-indazole-5-carboxamide] came in with an IC50 of over 50 nM.

`COCCNC(=O)c1ccc2nn(CC3CCN(C(=O)c4ccc(-c5ccc(C(C)(C)C#N)cc5)cc4)CC3)cc2c1C` [Example E185, 2-[(1-{[4′-(2-cyanopropan-2-yl)biphenyl-4-yl]carbonyl}piperidin-4-yl)methyl]-N-(2-methoxyethyl)-4-methyl-2H-indazole-5-carboxamide] came in with a concentration for half-maximal inhibition (IC50) of over 50 nM.

Compound `COCCNC(=O)c1ccc2nn(CC3CCN(C(=O)c4ccc(-c5ccc(OC)cn5)cc4)CC3)cc2c1C` [Example E186, N-(2-methoxyethyl)-2-({1-[4-(5-methoxypyridin-2-yl)benzoyl]piperidin-4-yl}methyl)-4-methyl-2H-indazole-5-carboxamide] yielded an IC50 of over 50 nM.

`COCCNC(=O)c1ccc2nn(CC3CCN(C(=O)c4ccc(-c5ccc(C(F)(F)F)nc5)cc4)CC3)cc2c1C` [Example E187, N-(2-methoxyethyl)-4-methyl-2-[(1-{4-[6-(trifluoromethyl)pyridin-3-yl]benzoyl}-piperidin-4-yl)methyl]-2H-indazole-5-carboxamide] displayed an IC50 of over 50 nM.

For the compound `COCCNC(=O)c1ccc2nn(CC3CCN(C(=O)c4ccc(-c5ccc(OC)nc5)cc4)CC3)cc2c1C` [Example E188, N-(2-methoxyethyl)-2-({1-[4-(6-methoxypyridin-3-yl)benzoyl]piperidin-4-yl}methyl)-4-methyl-2H-indazole-5-carboxamide], the IC50 was over 50 nM.

For `COCCNC(=O)c1ccc2nn(CC3CCN(C(=O)c4ccc(-c5ccc(F)cc5C)cc4)CC3)cc2c1C` [Example E189, 2-({1-[(4′-fluoro-2′-methylbiphenyl-4-yl)carbonyl]piperidin-4-yl}methyl)-N-(2-methoxyethyl)-4-methyl-2H-indazole-5-carboxamide], the half-inhibitory concentration (IC50) is over 50 nM.

With `COCCNC(=O)c1ccc2nn(CC3CCN(C(=O)c4ccc(-c5ccc(C)nc5)cc4)CC3)cc2c1C` [Example E190, N-(2-methoxyethyl)-4-methyl-2-({1-[4-(6-methylpyridin-3-yl)benzoyl]piperidin-4-yl}methyl)-2H-indazole-5-carboxamide], the IC50 is over 50 nM.

On to `COCCNC(=O)c1ccc2nn(CC3CCN(C(=O)c4ccc(-c5cccc(OC)n5)cc4)CC3)cc2c1C` [Example E191, N-(2-methoxyethyl)-2-({1-[4-(6-methoxypyridin-2-yl)benzoyl]piperidin-4-yl}methyl)-4-methyl-2H-indazole-5-carboxamide], for which the IC50 was over 50 nM.

Turning to `COCCNC(=O)c1ccc2nn(CC3CCN(C(=O)c4ccc(-c5ccc(F)cc5OC)cc4)CC3)cc2c1C` [Example E193, 2-({1-[(4′-fluoro-2′-methoxybiphenyl-4-yl)carbonyl]piperidin-4-yl}methyl)-N-(2-methoxyethyl)-4-methyl-2H-indazole-5-carboxamide], the IC50 was over 50 nM.

In the case of `COCCNC(=O)c1ccc2nn(CC3CCN(C(=O)c4ccc(-c5ccc(Cl)cc5OC)cc4)CC3)cc2c1C` [Example E194, 2-({1-[(4′-chloro-2′-methoxybiphenyl-4-yl)carbonyl]piperidin-4-yl}methyl)-N-(2-methoxyethyl)-4-methyl-2H-indazole-5-carboxamide], the IC50 was over 50 nM.

`COCCNC(=O)c1ccc2nn(CC3CCN(C(=O)c4ccc(-c5cnc(C(F)(F)F)nc5)cc4)CC3)cc2c1C` [Example E195, N-(2-methoxyethyl)-4-methyl-2-[(1-{4-[2-(trifluoromethyl)pyrimidin-5-yl]benzoyl}-piperidin-4-yl)methyl]-2H-indazole-5-carboxamide] had an IC50 of over 50 nM.
